Assay [1] has as its system d(T2G8) (DNA, G4) GGGGTTGGGG
In words: ITC. As to conditions: K+ (100 mM KCl, 30 mM potassium phosphate); pH 7.0, 25 °C; two-sites model; site 1 of 2.

The subject of assay [2] is d(T2G8) (DNA, G4) GGGGTTGGGG
The experiment in a line: SYBR Green fluorescence melting. To be noted: K+ (100 mM KCl, 30 mM potassium phosphate), 5 µM quadruplex, 1× SYBR Green, ligand concentration not stated.

For assay [3], the system named is d(T2G8) (DNA, G4) GGGGTTGGGG
The experiment in a line: ESI-MS, relative binding affinity. To be noted: 50 mM ammonium acetate; residual K+; 10 nM quadruplex and ligand, 10% methanol; intensity-derived index, not a constant.

Assay [4] relates to d(T2G8) (DNA, G4) GGGGTTGGGG
In words: UV-Vis titration (soret shift 424–434 nm, 38.2% hypochromicity). As to conditions: K+ (100 mM KCl, 30 mM potassium phosphate); 5 µM TMPyP4, 25 °C.

The structures appear in SMILES notation.

On to `COc1cc2c(cc1OCCCC(=O)Nc1ccc3ccc4cccc5ccc1c3c45)N=C[C@@H]1CCCN1C2=O`, for which the K1 in assay [1] was 0.0597 (±0.01) × 10^8. Moreover, the Tm in assay [2] (Tm 43 to 36 °C, derived from two Tm) is -7 °C. This compound also had an IRa in assay [3] of 0.45.
With `COc1cc2c(cc1OCCCCCOc1cc3c(cc1OC)C(=O)N1CCC[C@H]1C(=O)N3)N=C[C@@H]1CCCN1C2=O`, the K1 in assay [1] is 0.0875 (±0.03) × 10^8. For the same compound, the Tm in assay [2] (Tm 43 to 49 °C) was ~ 6 °C. In addition, the IRa in assay [3] is on record as 0.67.
With `C[n+]1ccc(-c2c3nc(c(-c4cc[n+](C)cc4)c4ccc([nH]4)c(-c4cc[n+](C)cc4)c4nc(c(-c5cc[n+](C)cc5)c5ccc2[nH]5)C=C4)C=C3)cc1`, the IRa in assay [3] turned out to be 0.18. In addition, the binding entry in assay [4] was “yes”.

These data come from article PMC3338766 (2012).
